Laboratory results from publication PMC10931745 (International Journal of Molecular Sciences, 2024).

Key:
[1] = test system: MDA-MB-231 cells; experiment: TUNEL assay (DNA damage/apoptosis); format: cell-based, human; details: 30 µM, 24 h
Method: The terminal deoxynucleotidyl transferase dUTP nick end labeling (TUNEL) assay was performed to detect cell apoptosis, following the manufacturer’s protocols (CF™488A TUNEL Assay Apoptosis Detection Kit, Biotium, Hayward, CA, USA), with some modifications, as previously indicated. Nuclei staining was performed using DAPI solution (0.2 µg/mL, Sigma Aldrich, Milan, Italy). A fluorescence microscope (Leica DM 6000) was used for the cell examinations at 20× magnification. LAS-X software 3.5.7.23225 was employed for the acquisition and processing of the images, which were representative of three independent experiments.

[2] = target: T1, human topoisomerase I (hTopoI) (Homo sapiens, UniProt P11387); experiment: Human topoisomerase I relaxation assay; format: biochemical; details: 1 µM, supercoiled pHOT1 DNA
T1 construct: purchased TopoGEN, Port Orange, FL, USA
T1 sequence (P11387 1-765): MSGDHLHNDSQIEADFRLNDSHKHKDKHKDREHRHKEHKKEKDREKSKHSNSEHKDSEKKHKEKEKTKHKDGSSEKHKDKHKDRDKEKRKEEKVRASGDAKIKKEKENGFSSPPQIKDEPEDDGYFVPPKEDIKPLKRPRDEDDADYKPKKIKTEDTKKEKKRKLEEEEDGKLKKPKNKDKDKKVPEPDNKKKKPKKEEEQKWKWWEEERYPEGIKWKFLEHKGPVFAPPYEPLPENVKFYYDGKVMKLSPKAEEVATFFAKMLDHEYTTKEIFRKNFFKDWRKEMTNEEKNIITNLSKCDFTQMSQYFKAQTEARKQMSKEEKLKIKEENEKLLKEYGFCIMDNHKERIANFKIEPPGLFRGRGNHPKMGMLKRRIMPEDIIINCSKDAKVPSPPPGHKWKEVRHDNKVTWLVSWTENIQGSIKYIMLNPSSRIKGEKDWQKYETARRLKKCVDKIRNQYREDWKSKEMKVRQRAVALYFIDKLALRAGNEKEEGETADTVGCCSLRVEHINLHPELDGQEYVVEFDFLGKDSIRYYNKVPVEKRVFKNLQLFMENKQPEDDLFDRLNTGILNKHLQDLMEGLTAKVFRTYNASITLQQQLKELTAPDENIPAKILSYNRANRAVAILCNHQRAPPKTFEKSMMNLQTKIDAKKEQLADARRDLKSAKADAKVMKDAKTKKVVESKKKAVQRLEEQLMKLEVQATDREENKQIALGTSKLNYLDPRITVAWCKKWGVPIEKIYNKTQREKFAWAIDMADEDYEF
Method: The human topoisomerase I relaxation assay was performed as reported in [86]. Shortly, the recombinant human topo I (TopoGEN, Port Orange, FL, USA) was incubated with the super-coiled pHOT1, in the presence or not of the tested compounds, at the indicated concentrations. The reaction products were then allowed to separate through the agarose gel electrophoresis, and ethidium bromide-stained DNA was visualized under UV light.

[3] = test system: NO production in LPS-stimulated RAW 264.7 macrophages; experiment: Griess assay, NO production; format: cell-based, murine; details: 25 µM, LPS 1 µg/mL, 24 h
Method: The Griess assay was performed using RAW 264.7 murine macrophages to study the anti-inflammatory activity in terms of NO production. RAW 264.7 cells were plated in the 48 multi-wells and, after 24 h, treated with the tested molecules (25 µM) and the lipopolysaccharide (LPS, Sigma Aldrich, Milan, Italy) at a final concentration of 1 µg/mL. LPS is able to induce inflammation by stimulating NO production in immune system cells such as macrophages. After 24 h, the cell medium Griess reagent (Sigma Aldrich, Milan, Italy) was mixed in with a ratio of 1:1. The Griess reagent allowed for the quantification of NO released by macrophages in the treatment medium. The mixture was left for 30 min under agitation and, subsequently, the absorbance at 540 nm was measured using a multiplate reader. The obtained absorbance allowed us to calculate the NO production % compared to the absorbance obtained for the positive control, in which the cells were treated with LPS.

[4] = ABTS radical scavenging assay; format: biochemical
Method: The radical scavenging properties of the complexes on a 2,20-azino-bis(3-ethylbenzothiazoline-6-sulfonate) radical cation (ABTS^+) were evaluated as previously described.
All the complexes were used at different concentrations (5, 10, 25, 50, and 100 µg/mL) and the ABTS radical scavenging activity, measured at 730 nm using a microplate reader, was expressed as inhibition percentages (%IABTS) compared tothe control, according to the following expression:(3) IABTS (%)=ABSCTRL−ABSsample/ABSCTRL∗100 where ABSCTRL and ABSsample are the absorbance at 730 nm in the control and in the presence of samples, respectively.
IC50 values were calculated from the %IABTS using GraphPad Prism 9 software (GraphPad Inc., San Diego, CA, USA). Trolox was employed as a positive control, while caffeine and theophylline were reference compounds.

[5] = test system: Escherichia coli (ATCC 25922); experiment: MIC/MBC broth dilution; format: cell-based
Method: (§1) The bacterial strains used for MIC and MBC value determinations expressed as µg/mL by the broth dilution method, according to CLSI guidelines, were the following:
(§2) -4 Gram-negative: Escherichia coli (ATCC® 25922^TM) and Klebsiella pneumoniae (ATCC® 13883^TM);
(§3) Increasing concentrations of the complexes (50, 70, 100, 150, and 200 µg/mL) were incubated with bacteria plated in 96-well microplates at 37 °C overnight as already reported, and then bacterial growth was checked at a wavelength of 600 nm using a Multiskan spectrophotometer (model Multiskan Ex Microplate; Thermo Scientific, Nyon, Switzerland). MIC or MBC values were obtained by comparing cell density with a positive control (bacterial cells grown in LB medium were added with only the vehicle, DMSO). The results were representative of three independent experiments performed in triplicate. Ampicillin, Gentamicin, and Cephalosporin (Sigma Aldrich A9393) were used as the control for strain sensitivity.

[6] = test system: Klebsiella pneumoniae (ATCC 13883); experiment: MIC/MBC broth dilution; format: cell-based
Method: as §1, §2, §3

Compound | DNA damage (green nuclear fluorescence, TUNEL) [1] | Inhibition of hTopo I supercoil relaxing activity [2] | Reduction in NO production [3] | IC50 [4] [µM] | M.B.C. E. coli [5] [µg/mL] | M.I.C. E. coli [5] [µg/mL] | M.B.C. K. pneumoniae [6] [µg/mL] | M.I.C. K. pneumoniae [6] [µg/mL]
CC(=O)[O][Ag-][c]1n(C)c2c(c(=O)n(C)c(=O)n2C)[n+]1C1CCCCC1O (stereo not shown) [AgL2OAc, 1,3,7-Trimethylxanthin-9-[cyclohexan-2-ol-8-ylidene]Ag(I) Acetate] | formation of a green nuclear fluorescence | totally inhibited | about 5.20% | 145.4 ± 1.1 | > 150 | 100 | > 150 | 125
Cn1c(=O)c2c(n(C)[c]([Au-][I])[n+]2CC(O)c2ccccc2)n(C)c1=O (racemic) [AuL1, 1,3,7-Trimethylxanthin-9-[(2-hydroxy-2-phenyl)ethyl-8-ylidene]Au(I) Iodide] | formation of a green nuclear fluorescence | totally inhibited | ~6.23% | 161 ± 1 | > 200 | 150 | > 200 | 150
